The source of these data is publication PMC5465826 (Research in Pharmaceutical Sciences, 2017).

As usually defined, the Vss is the apparent volume that relates the amount in the body to the concentration in plasma or blood. Lower therefore signals confinement near the circulation. Usually AUC stands for concentration integrated over time.

For data set [1] the following is noted: humans, 5 g oral dose of a botanical mixture of 7 herbs; ref [28]; cited from earlier work.
The format of data set [2] is in vivo, rat.
For data set [3] the following is noted: intravenous 20 mg/kg, achiral, approximate; ref [25][26]; cited from earlier work.
The conditions of data set [4]: ref [18][19][21][25][26][27], cited from earlier work.
Where [5] appears, read: rat serum, IV 20 mg/kg racemic liquiritigenin, mean ± SEM, n = 4, 20 mg/kg.
The mark [6] stands for this setting: oral, given alone or in a mixture (exact dose unknown), approximate.

“And” between values parts separate entries of the source, which are not always exact repeats. Equal values may be shown once. Read-outs that look alike come from different tables or passages of the source.

In the case of `O=C1C[C@H](c2ccc(O)cc2)Oc2cc(O)ccc21` [R-liquiritigenin], the “fraction excreted unchanged in the urine (fe %)” value in data set [1] is 50.9 ± 21.6%. Also, the t1/2 serum in data set [2] (setting [5]) came to 32.59 ± 4.26 min.

On to `O=C1C[C@@H](c2ccc(O)cc2)Oc2cc(O)ccc21` [S-liquiritigenin], for which, in data set [1], the “fraction excreted unchanged in the urine (fe %)” value is reported as 36.2 ± 19.0%.

Consider `O=C1C[C@@H](c2ccc(O)cc2)Oc2cc(O)ccc21` [liquiritigenin], for which, in data set [2] (rat serum), the “time liquiritigenin could be measured in serum” value is recorded as “only an hour”. Moreover, the t1/2 serum in data set [2] (setting [5]) is 12 to 30 min and 15 to 32.4 min and 15 to 25.8 min. Moreover, the “time liquiritigenin could be measured (detected) in urine” value in data set [2] (rat urine) was “up to 70 h”. The volume of distribution (Vss) in data set [2] (rat, IV 20 mg/kg racemic liquiritigenin, mean ± SEM, n = 4, 20 mg/kg) lay within 2.7 to 4.6 L/kg. Further, in data set [3], the AUC was 290 to 410 µg·min/mL, the clearances is 50 to 70 mL/min/kg and the plasma half-lives is 5 to 8 min. In data set [4] (Kang, et al., oral doses of 20-50 mg/kg), the bioavailability is 3-7%. For the same compound, in data set [4] (setting [6]), the AUC was 19 to 6594 ng·h/mL and the plasma half-lives is 3 to 11 h.
